According to patent US6387955B1, “Enhanced anti-angiogenic activity of permanently charged derivatives of steroid hormones” (Pharmos Corporation, priority 1997, dated 2002):

Assays:
Bovine endothelial cells = test: Endothelial cell tube formation on Matrigel; type: cell-based; settings: 10 μM, image analysis
Protocol: Bovine endothelial cells were harvested by brief exposure to 1 mM EDTA, washed with DMEM containing 0.1% bovine serum albumin and added to a layer of Matrigel (basement membrane components) in a 24 well plate to a density of 50,000 cells per well. After attachment, culture media (1.0 ml) was added and the plates incubated as a monolayer culture in the presence or absence of various concentrations of TMI. The plates were analyzed hourly using Hoffman optics for endothelial tube formation and growth. Photomicrographs were taken for estimation of relative inhibitory action.
The action of TMI on angiogenesis was evaluated using in vitro techniques. Bovine endothelial cells seeded on matrigel (a basement membrane preparation made up of laminin, collagen type IV, heparin sulfate proteoglycan and entactin) will form tubes which elongate as a function of time. […] A dose of 10 μM of TMI decreased tube area by more than 70%, as measured by image analysis.

[1] = test system: MMP-2 (Gelatinase A) promoter; test: MMP-2 (Gelatinase A) related CAT activity in transfected bovine endothelial cells; type: cell-based
Protocol: Regulation of collagenase gene expression (for MMP-2 and MMP-9) was studied by measuring the activation of the relevant promoters linked to chloramphenicol acetyl transferase (CAT) as a reporter gene. The relevant vectors were introduced into the fibrosarcoma and endothelial cells by the lipofection as indicated by the manufacturer. CAT activity was determined after 3, 6 and 24 hrs either in the absence or presence of various concentrations of TMI.
To further examine where the inhibitory effects of TMI are manifested, human fibrosarcoma cells as well as bovine endothelial cells were transfected with plasmids containing the promoters for type IV collagenase (both MMP-2 and MMP-9) and the chloramphenicol acetyl transferase (CAT) construct to act as a reporter. Simian virus-40 (SV-40) served as the positive control. TMI was added to the transfected cells at concentrations of 1, 5 and 10 μM for 2 days, at which time cell viability was confirmed by trypan blue exclusion and cell counting.
In endothelial cells, TMI reduced CAT activity by 45% at 1.0 μM and by 80% at 10 μM.

[2] = test system: murine endothelial cells in MCF-7 tumors; test: Endothelial cell area in GSL-1 lectin stained MCF-7 tumor sections; type: in vivo, nude mice; settings: viable areas of tumors, three days treatment, GSL-1 staining; control tumors 14%
Protocol: For specific staining of endothelial cells, paraffin-embedded sections (4 μm) were deparafinized and rehydrated. Sections were first treated with a blocking solution containing nonimmune goat serum for 30 min at room temperature and then with a 0.1 mg/ml solution of biotinylated Griffonia simplicifolia lectin (GSL-1) for 60 min. The GSL-1 lectin binds specifically to α-galactosyl residues and marks the vascular endothelium in mice. The sections were then washed with TRIS buffered saline (TBS) and treated for 30 min with avidin-biotin-peroxidase complex (Vector Laboratories, Burlingame, Calif.), after which the peroxidase was activated by incubation of the sections with 0.1 M acetate buffer (pH 5.2) containing 3% H2O2 and 3% 3-amino-9-ethylcarbazole for 5-10 min. […] The area of stained endothelial cells was determined by measuring the area above a threshold intensity (red 46-165; green 25-119; blue 37-94) of the peroxidase reaction product in each slice. […] Ten to fifteen areas per section were recorded for tumors treated three days with either the placebo and TMI.
Vascular density of murine endothelial cells was evaluated by specific staining, using the GSL-1 lectin (the equivalent of factor VIII antibody staining for human endothelial systems) followed by color image analysis of the resulting sections. […]

`CC/C(=C(\c1ccccc1)c1ccc(OCC[N+](C)(C)C)cc1)c1ccccc1` [TMI, Tamoxifen methiodide] was tested, and the “decrease of tube area” value (Bovine endothelial cells) was “more than 70%”, the “reduction of CAT activity” value ([1]; 1.0 μM) was 45% and the “reduction of CAT activity” value ([1]; 10 μM) was 80%. The “mean percentage of endothelial cell areas” value [2] was 5%.
